A value given as a limit tells only on which side of the number the result lay.

For the first experiment, the target named is KRAS-G12C/SOS1 interaction (Homo sapiens (Human), UniProt Q07889). Description: Protein-Protein Interaction (PPI) assay, SOS1-KRAS binding assay kit (HTRF).
Chain of KRAS-G12C/SOS1 interaction (Q07889 whole entry, stated change not applied): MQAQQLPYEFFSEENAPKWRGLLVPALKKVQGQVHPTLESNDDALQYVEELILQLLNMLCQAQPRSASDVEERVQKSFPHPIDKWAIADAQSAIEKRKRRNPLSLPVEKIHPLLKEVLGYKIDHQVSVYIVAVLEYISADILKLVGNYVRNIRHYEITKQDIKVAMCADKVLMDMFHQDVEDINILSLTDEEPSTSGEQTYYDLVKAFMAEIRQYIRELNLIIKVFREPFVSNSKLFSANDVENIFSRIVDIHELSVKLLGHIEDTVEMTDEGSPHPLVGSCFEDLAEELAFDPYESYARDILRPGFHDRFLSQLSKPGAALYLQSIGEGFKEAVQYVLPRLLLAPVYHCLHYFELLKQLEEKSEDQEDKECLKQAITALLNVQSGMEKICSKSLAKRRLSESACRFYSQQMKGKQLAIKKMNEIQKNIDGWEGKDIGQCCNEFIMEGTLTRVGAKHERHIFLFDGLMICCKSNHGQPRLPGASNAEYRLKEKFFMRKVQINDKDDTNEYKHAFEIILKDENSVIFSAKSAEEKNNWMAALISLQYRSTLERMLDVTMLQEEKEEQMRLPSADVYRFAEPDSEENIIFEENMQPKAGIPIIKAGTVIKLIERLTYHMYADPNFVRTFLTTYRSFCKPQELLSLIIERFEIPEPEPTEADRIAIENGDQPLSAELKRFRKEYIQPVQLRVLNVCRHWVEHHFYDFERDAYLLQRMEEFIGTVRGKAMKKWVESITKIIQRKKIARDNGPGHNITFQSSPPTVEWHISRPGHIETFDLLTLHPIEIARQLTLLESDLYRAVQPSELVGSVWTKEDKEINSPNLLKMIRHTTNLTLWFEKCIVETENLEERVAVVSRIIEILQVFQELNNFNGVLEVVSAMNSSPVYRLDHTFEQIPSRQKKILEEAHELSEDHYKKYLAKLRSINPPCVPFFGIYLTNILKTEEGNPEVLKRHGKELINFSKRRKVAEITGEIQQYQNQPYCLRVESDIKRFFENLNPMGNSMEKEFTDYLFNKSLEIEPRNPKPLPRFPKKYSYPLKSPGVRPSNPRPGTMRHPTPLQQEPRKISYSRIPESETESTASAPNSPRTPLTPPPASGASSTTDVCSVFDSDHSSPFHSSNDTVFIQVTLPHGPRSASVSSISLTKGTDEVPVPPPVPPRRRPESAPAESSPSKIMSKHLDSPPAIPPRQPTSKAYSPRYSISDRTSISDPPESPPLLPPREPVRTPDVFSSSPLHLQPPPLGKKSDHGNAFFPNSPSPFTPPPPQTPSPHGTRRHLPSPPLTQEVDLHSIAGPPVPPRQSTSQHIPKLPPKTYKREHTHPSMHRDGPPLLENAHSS
Conditions: not given
On the procedure: This Example illustrates that exemplary compounds of the present invention blockade the interaction of SOS1 to KRAS protein.
The ability of a compound of Formula (I) to block the interaction of SOS1 to KRAS was measured using a SOS1-KRAS binding assay kit (CAT #63ADK000CB16PEG, Cisbio). Utilizing HTRF (Homogeneous Time-resolved Fluorescence) technology, the assay enables simple and rapid characterization of compound and antibody blockers in a high throughput format. The interaction between Tag1-SOS1 and Tag2-KRAS-G12C is detected by using anti-Tag1-Terbium antibody (HTRF donor) and anti-Tag2-XL665 antibody (HTRF acceptor). When the donor and acceptor antibodies are brought into close proximity due to SOS1 and KRAS-G12C binding, excitation of the donor antibody triggers fluorescent resonance energy transfer (FRET) towards the acceptor antibody, which in turn emits specifically at 665 nm. This specific signal is directly proportional to the extent of KRAS-G12C/SOS1 interaction.
The assay was carried according to the manufacturer's instructions. Compounds at an initial concentration of 10 mM in DMSO were first serially diluted on a 384-well plate using assay buffer at a ratio of 1:3 for a total of 9 concentrations with each of a volume of 20 μL. Blank buffer was included as the negative control. The final compound solution was in the buffer solution with 1% DMSO. Then, in each well of a 384-well plate, a solution of 2 μL compound solution, 4 μL tagged SOS1 and KRAS (G12C) protein stocks, respectively, and 10 μM GTP was incubated for 15 min. 10 μL mixture of […] antibody and anti-Tag1-Terbium antibody was introduced to each individual well. After 2 hours incubation at room temperature, fluorescence readout was measured with a Pelkin Elmer multiple plate reader VICTOR Nivo.
Excitation was from over a range of 245-395 nm, and emission from the donor (emission 1) was detected at […] and emission from the acceptor (emission 2) was detected at (606.5-623.5) nm. The HTRF ratio was calculated using the formula: (emission 1 @665 nm/emission 2 @620 nm)×10000. Thus, compounds blocking KRAS-G12C/SOS1 interaction will cause a reduction in HTRF signal ratio. The IC50 values were then calculated with the Graph pad Prism software.
Regarding `Cc1nc(N[C@H](C)c2cccc(C(F)F)c2F)c2cc(C(=O)N(C(C)C)C(C)C)c3ncnn3c2n1` [Example 7], the IC50 (as a rule, the concentration that inhibits the measured activity by half) was above 100 nM. The same measure, in the same setting: the result for `Cc1nc(N[C@H](C)c2cccc(C(F)F)c2F)c2cc(C(=O)N(C)C3COC3)c3ncnn3c2n1` [Example 8] reads above 100 nM. Molecule `CNC(=O)c1cc2c(N[C@H](C)c3cccc(C(F)F)c3F)nc(C)nc2n2ncnc12` [Example 9] returned an IC50 above 100 nM. Same read-out and setting: the result for `Cc1nc(N[C@H](C)c2cccc(C(F)F)c2F)c2cc(C(=O)NC(C)(C)C)c3ncnn3c2n1` [Example 10] reads above 100 nM. The same measure, in the same setting: the result for `Cc1nc(N[C@H](C)c2cccc(C(F)F)c2F)c2cc(C(=O)N3CCOC[C@H]3C)c3ncnn3c2n1` [Example 15] reads above 100 nM.

Consider `Cc1nc(N[C@H](C)c2cccc(C(F)F)c2F)c2cc(C(=O)N3CC4(CCC4)C3)c3ncnn3c2n1` [Example 28], for which the IC50 was above 100 nM. For `CCOC(=O)c1cc2c(N[C@H](C)c3cccc(C(F)F)c3F)nc(C)nc2n2cnnc12` [Example 53], the IC50 is above 100 nM. Consider `Cc1nc(N[C@H](C)c2cccc(C(F)F)c2F)c2cc(C(=O)N(C(C)C)C(C)C)c3nnnn3c2n1` [Example 56], for which the IC50 was above 100 nM.

Regarding `Cc1nc(N[C@H](C)c2cccc(C(F)F)c2F)c2cc(C(=O)NC(C)(C)C)c3nnnn3c2n1` [Example 57], the IC50 is above 100 nM. `Cc1nc(N[C@H](C)c2cccc(C(F)F)c2F)c2cc(C(=O)N3C4COCC3C4)c3nnnn3c2n1` [Example 65]: the IC50 was above 100 nM. In turn, `Cc1nc(N[C@H](C)c2cccc(C(F)F)c2F)c2cc(N3CCC(F)(F)CC3)c3nncn3c2n1` [Example 75] came in with an IC50 above 100 nM.

For the molecule `Cc1nc(N[C@H](C)c2cccc(C(F)F)c2F)c2cc(N3CC(O)C3)c3nncn3c2n1` [Example 77], the IC50 is above 100 nM.

In turn, `C[C@@H](Nc1ncnc2c1cc(N1C3COCC1C3)c1nncn12)c1cccc(C(F)F)c1F` [Example 80] had an IC50 above 100 nM.

On to `C[C@@H](Nc1ncnc2c1cc(N1CC(C#N)C1)c1nncn12)c1cccc(C(F)F)c1F` [Example 81], for which the IC50 is above 100 nM. Same read-out and setting: the result for `CC(=O)N1CC2(C1)CN(c1cc3c(N[C@H](C)c4cccc(C(F)F)c4F)ncnc3n3cnnc13)C2` [Example 82] reads above 100 nM; that for `Cc1c([C@@H](C)Nc2ncnc3c2cc(N2CCOCC2)c2nncn23)cccc1C(F)(F)F` [Example 83], above 100 nM; that for `C[C@@H](Nc1ncnc2c1cc(N1CCOCC1)c1nncn12)c1cccc(C(F)(F)F)c1F` [Example 84], above 100 nM. As to `Cc1nc(N[C@H](C)c2cc(N)cc(C(F)(F)F)c2)c2cc(N3CCOCC3)c3nnc(C)n3c2n1` [Example 87], the IC50 is above 100 nM. `C[C@@H](Nc1ncnc2c1cc(NC1CCS(=O)(=O)CC1)c1nncn12)c1cccc(C(F)F)c1F` [Example 89] gave an IC50 above 100 nM. With `CC(=O)N1CC=C(c2cc3c(N[C@H](C)c4cccc(C(F)F)c4F)nc(C)nc3n3cnnc23)CC1(C)C` [Example 102], the IC50 is above 100 nM. Still for that read-out and setting: the result for `CC(=O)N1CC=C(c2cc3c(N[C@H](C)c4cccc(C(F)F)c4F)nc(C)nc3n3cnnc23)C1` [Example 103] reads above 100 nM.

Still in this experiment, the particulars now being: read-out: PPI Assay IC50.
As to `Cc1nc(N[C@H](C)c2cccc(C(F)F)c2F)c2cc(C(=O)N3CCOC[C@@H]3C)c3ncnn3c2n1` [Example 12], the IC50 was below 100 nM. Still for that read-out and setting: the result for `Cc1nc(N[C@H](C)c2cccc(C(F)F)c2F)c2cc(C(=O)N3CCOCC3(C)C)c3ncnn3c2n1` [Example 14] reads below 100 nM; that for `Cc1nc(N[C@H](C)c2cccc(C(F)F)c2F)c2cc(C(=O)N3CCCCC3)c3ncnn3c2n1` [Example 16], below 100 nM; that for `Cc1nc(N[C@H](C)c2cccc(C(F)F)c2F)c2cc(C(=O)N3CC(O)C3)c3ncnn3c2n1` [Example 25], below 100 nM. Take `CC(=O)N1CC2(CCN2C(=O)c2cc3c(N[C@H](C)c4cccc(C(F)F)c4F)nc(C)nc3n3ncnc23)C1` [Example 30]: the IC50 is below 100 nM. Same read-out and setting: the value for `Cc1nc(N[C@H](C)c2cccc(C(F)F)c2F)c2cc(C(=O)N3CCCC34CCCC4)c3ncnn3c2n1` [Example 32] was below 100 nM; that for `Cc1nc(N[C@H](C)c2cccc(C(F)F)c2F)c2cc(C(=O)N3CCC4(CCOC4)C3)c3ncnn3c2n1` (stereo partly drawn) [Example 34] was below 100 nM; that for `C[C@@H](Nc1ncnc2c1cc(C(=O)N(C)C)c1ncnn12)c1cccc(C(F)F)c1F` [Example 40] was below 100 nM. Consider `C[C@@H](Nc1ncnc2c1cc(C(=O)N1CCN(CCS(C)(=O)=O)CC1)c1ncnn12)c1cccc(C(F)F)c1F` [Example 41], for which the IC50 was below 100 nM. Still for that read-out and setting: the value for `C[C@@H](Nc1ncnc2c1cc(C(=O)N1CCC13COC3)c1ncnn12)c1cccc(C(F)F)c1F` [Example 43] was below 100 nM; that for `C[C@@H](Nc1ncnc2c1cc(C(=O)N1CCCC13CCOC3)c1ncnn12)c1cccc(C(F)F)c1F` (stereo partly drawn) [Example 44] was below 100 nM. With `C[C@@H](Nc1ncnc2c1cc(C(=O)N1CCC13CNC3)c1ncnn12)c1cccc(C(F)F)c1F` [Example 45], the IC50 was below 100 nM. Still for that read-out and setting: the value for `C[C@@H](Nc1ncnc2c1cc(C(=O)N1C3COCC1C3)c1ncnn12)c1cccc(C(F)F)c1F` [Example 46] was below 100 nM; that for `C[C@@H](Nc1ncnc2c1cc(C(=O)N1C3CCN(C)CC1C3)c1ncnn12)c1cccc(C(F)F)c1F` (stereo partly drawn) [Example 48] was below 100 nM.

In the case of `C[C@@H](Nc1ncnc2c1cc(C(=O)N1C3CCC1COC3)c1ncnn12)c1cccc(C(F)F)c1F` [Example 49], the IC50 was below 100 nM. For the molecule `Cc1nc(N[C@H](C)c2cccc(C(F)F)c2F)c2cc(C(=O)N3CCCC34CCOC4)c3nncn3c2n1` (stereo partly drawn) [Example 52], the IC50 is below 100 nM. Still for that read-out and setting: the result for `Cc1nc(N[C@H](C)c2cccc(C(F)F)c2F)c2cc(C(=O)N3CCOCC3)c3nccn3c2n1` [Example 54, (R)-(4-((1-(3-(difluoromethyl)-2-fluorophenyl)ethyl)amino)-2-methylimidazo[1′,2′:1,6]pyrido[2,3-d]pyrimidin-6-yl)(morpholino)methanone] reads below 100 nM; that for `Cc1nc(N[C@H](C)c2cccc(C(F)F)c2F)c2cc(C(=O)N3CCN(CCS(C)(=O)=O)CC3)c3nnnn3c2n1` [Example 59], below 100 nM; that for `CC(=O)N1CC2(CCN2C(=O)c2cc3c(N[C@H](C)c4cccc(C(F)F)c4F)nc(C)nc3n3nnnc23)C1` [Example 61], below 100 nM. Same read-out and setting: the value for `Cc1nc(N[C@H](C)c2cccc(C(F)F)c2F)c2cc(C(=O)N3CCC34COC4)c3nnnn3c2n1` [Example 63] was below 100 nM.

With `Cc1nc(N[C@H](C)c2cccc(C(F)F)c2F)c2cc(C(=O)N3C4CCC3COC4)c3nnnn3c2n1` [Example 64], the IC50 is below 100 nM.

As to `C[C@H](O)C(=O)N1CCC(c2cc3c(N[C@H](C)c4cccc(C(F)F)c4F)ncnc3n3cnnc23)CC1` [Example 72], the IC50 was below 100 nM. Same read-out and setting: the result for `CC(=O)N1CC2(C1)CN(c1cc3c(N[C@H](C)c4cccc(C(F)F)c4F)nc(C)nc3n3cnnc13)C2` [Example 78] reads below 100 nM; that for `Cc1nc(N[C@H](C)c2cccc(C(F)F)c2F)c2cc([C@H]3CC[C@@H](O)CC3)c3nncn3c2n1` [Example 90-P1, Cis-4-(4-(((R)-1-(3-(difluoromethyl)-2-fluorophenyl)ethyl)amino)-2-methyl-[1,2,4]triazolo[4′,3′:1,6]pyrido[2,3-d]pyrimidin-6-yl)cyclohexan-1-ol], below 100 nM.

With `Cc1nc(N[C@H](C)c2cccc(C(F)F)c2F)c2cc([C@H]3CC[C@H](O)CC3)c3nncn3c2n1` [Example 90-P2, trans-4-(4-(((R)-1-(3-(difluoromethyl)-2-fluorophenyl)ethyl)amino)-2-methyl-[1,2,4]triazolo[4′,3′:1,6]pyrido[2,3-d]pyrimidin-6-yl)cyclohexan-1-ol], the IC50 is below 100 nM.

For the molecule `Cc1nc(N[C@H](C)c2cccc(C(F)F)c2F)c2cc(N3CC(C(=O)N(C)C)C3)c3nnnn3c2n1` [Example 94], the half-maximal inhibitory concentration (IC50) was below 100 nM.

Consider `CC(=O)N1CC=C(c2cc3c(N[C@H](C)c4cccc(C(F)F)c4F)nc(C)nc3n3c(C)nnc23)CC1` [Example 104], for which the IC50 was below 100 nM. On to `C[C@@H](Nc1ncnc2c1cc(C1(O)CCS(=O)(=O)CC1)c1nncn12)c1cccc(C(F)F)c1F` [Example 110], for which the IC50 was below 100 nM. Regarding `CC(=O)N1CCC(O)(c2cc3c(N[C@H](C)c4cccc(C(F)F)c4F)nc(C)nc3n3c(C)nnc23)CC1` [Example 111], the concentration for half-maximal inhibition (IC50) was below 100 nM. Still for that read-out and setting: the result for `COC1(c2cc3c(N[C@H](C)c4cc(N)cc(C(F)(F)F)c4)ncnc3n3nnnc23)CCN(C(C)=O)CC1` [Example 126] reads below 100 nM.

(Values after US20250230159A1, “FUSED HETEROCYCLIC COMPOUNDS AS MODULATORS OF RAS SIGNALLING” (Shenzhen Ionova Life Science Co., Ltd., priority 2022, published 2025).)
